In patent US20210317141A1, “OXOPYRIDO[1,2-A]PYRIMIDINE COMPOUNDS FOR THE TREATMENT AND PROPHYLAXIS OF BACTERIAL INFECTION” (Hoffmann-La Roche Inc., priority 2018, published 2021):
Values after ≈ are worked out from the molar mass of the structure shown.

What was measured:
[1] = tested on: K. pneumoniae (ATCC10031); assay: 50% growth inhibitory concentration (IC50) determination assay, K. pneumoniae; format: cell-based; conditions: Klebsiella pneumoniae, growth inhibition, Iso-Sensitest broth, OD 600 nm over 16 h, * = detection limit
Description: (§1) The in vitro antimicrobial activity of the compounds against E. coli (BW25113, obtained from Coli Genetic Stock Center, #7636) and K. pneumoniae (ATCC10031) was determined according to the following procedure:
(§2) The assay used a 10-points Iso-Sensitest broth medium to measure quantitatively the in vitro activity of the compounds against E. coli BW25113 and K. pneumoniae ATCC 10031.
(§3) Stock compounds in DMSO were serially two-fold diluted (range from 50 to 0.097 μM final concentration) in 384 wells microtiter plates and inoculated with 49 μL the bacterial suspension in Iso-Sensitest broth medium to have a final cell concentration of ˜5×10^5 CFU/mL in a final volume/well of 50 μL/well. Microtiter plates were incubated at 35±2° C.
(§4) Bacterial cell growth was determined with the measurement of optical density at k=600 nm each 20 minutes over a time course of 16 h.
(§5) Growth inhibition was calculated during the logarithmic growth of the bacterial cells with determination of the concentration inhibiting 50% (IC50) of the growth.

[2] = tested on: E. coli (BW25113); assay: 50% growth inhibitory concentration (IC50) determination assay, E. coli; format: cell-based; conditions: Escherichia coli, growth inhibition, Iso-Sensitest broth, OD 600 nm over 16 h, 35±2° C., read-out: IC50 (μM) E. coli K12 BW25113
Description: as §1, §2, §3, §4, §5

[3] = tested on: E. coli (ATCC 25922); assay: Minimal Inhibitory Concentration (MIC) assay; format: cell-based; conditions: Escherichia coli, ATCC25922; CAMHB, 20 hours at 35° C.; read-out: MIC (μg/mL) E. coli ATCC 25922
Description: The in vitro potency of compounds to inhibit E. coli (ATCC 25922) growth was assessed by MIC (Minimal Inhibitory Concentration) assay. Samples were prepared from 10 mM DMSO stock solutions. After serial 2-fold dilution in DMSO in a master plate (Greiner, Cat No: 651201), 180 μL sterile distilled water was added to 20 μL each aliquot of the samples. Then […], diluted compounds were transferred into a new assay plate (Costar, 3599).
The growth medium […] Mueller Hinton Broth (CAMHB) was prepared by adding the 20 mg per liter CaCl2) and 20 mg per liter MgCl2 into the MHB medium (Jianglai Company, sterilized).
Vials of each of the test microorganisms were maintained frozen in the vapor phase of a liquid nitrogen freezer. Took out the bacteria E. coli ATCC 25922 (KWIKSTIK, 0335K) from liquid nitrogen freezer, thawed it in room temperature, and diluted the bacterial in the CAMHB medium to achieve a final inoculum of 5×10^5 CFU/mL. 90 μL CAMHB with bacteria was dispensed to the assay plate and pipetted 5 times.
Then the assay plates were incubated for 20 hours at 35° C. in ambient air. Following incubation, the MIC (μg/mL), the lowest concentration of drug that inhibits visible growth of the microorganism was read and recorded throw the microscope.

[4] = Lyophilisation solubility assay (LYSA); format: physicochemical; conditions: aqueous buffer, thermodynamic from solid; 0.05 M phosphate buffer, pH 6.5; * = detection limit
Description: The solubility of compounds of present invention was assessed by LYSA assay. Samples were prepared in duplicate from 10 mM DMSO stock solutions (20 μL) diluted in 30 μL pure DMSO. After evaporation of DMSO with a centrifugal vacuum evaporator, the residue was dissolved in 0.05 M phosphate buffer (150 μL, pH 6.5), stirred for one hour and shook for two hours. After one night, the solution was filtered using a microtiter filter plate. Then the filtrate and its 1/10 dilution were analyzed by HPLC-UV. In addition, a four-point calibration curve was prepared from the 10 mM stock solutions and used for the solubility determination of the compounds.

[5] = Cytotoxicity assay (HepG2, CellTiter-Blue); format: cell-based; conditions: human, HepG2 cells, 3 days treatment
Description: The cytotoxicity of compounds of present invention was assessed by HepG2 assay. HepG2 cells (ATCC HB-8065™) were seeded into 96-well plates (1.2×10^4 cells per well) and treated with compounds for 3 days, cell viability was measured at day 3 post compound treatment using the CellTiter-Blue® Cell Viability Assay (Promega, Cat. No. G8082). 20 μL of Cell titer blue buffer were added to each well of the cells, incubated for 3 hours at 37° C., and the fluorescence value was measured by a plate reader (Molecular Device SpectraMax M2). The CC50 value of each compound is plotted with GraphPad Prism using four parameter logistic equation.

Row | Structure (SMILES) | IC50 [1] [µM] | IC50 [2] [µM] | MIC [3] [µg/mL] | solubility thermodynamic [4] [µg/mL] | CC50 at 3 days [5] [nM]
1 | CNc1cc(F)c(F)c2c1[nH]c1ncc(-c3cc(C)c4ncc(C(=O)O)c(=O)n4c3)c(N(C)C)c12 [Example 1.02, 7-[4-(Dimethylamino)-5,6-difluoro-8-(methylamino)-9H-pyrido[2,3-b]indol-3-yl]-9-methyl-4-oxo-pyrido[1,2-a]pyrimidine-3-carboxylic acid] | ≤ 0.098 | 0.262 | 0.598 (≈ 1.25 µM) |  | 
2 | CNc1cc(F)c(F)c2c1[nH]c1ncc(-c3cc(N4CCOCC4)c4ncc(C(=O)O)c(=O)n4c3)c(N(C)C)c12 [Example 1.06, 7-[4-(Dimethylamino)-5,6-difluoro-8-(methylamino)-9H-pyrido[2,3-b]indol-3-yl]-9-morpholino-4-oxo-pyrido[1,2-a]pyrimidine-3-carboxylic acid] | 0.187 | 0.828 | 0.122 (≈ 0.222 µM) |  | 
3 | CNc1cc(F)c(F)c2c1[nH]c1ncc(-c3cc(N4CCOCC4)c4ncc(C(=O)O)c(=O)n4c3)c(N3CCCC3)c12 [Example 1.07, 7-[5,6-Difluoro-8-(methylamino)-4-pyrrolidin-1-yl-9H-pyrido[2,3-b]indol-3-yl]-9-morpholino-4-oxo-pyrido[1,2-a]pyrimidine-3-carboxylic acid] | 0.319 | 0.885 | 0.0911 (≈ 0.158 µM) |  | 
4 | CNc1cc(F)c(F)c2c1[nH]c1ncc(-c3cc(CN(C)C)c4ncc(C(=O)O)c(=O)n4c3)c(N3CCCC3)c12 [Example 1.15, 7-(5,6-Difluoro-8-(methylamino)-4-(pyrrolidin-1-yl)-9H-pyrido[2,3-b]indol-3-yl)-9-((dimethylamino)methyl)-4-oxo-4H-pyrido[1,2-a]pyrimidine-3-carboxylic acid] | ≤ 0.098 | 0.663 | 0.152 (≈ 0.278 µM) | 19 (≈ 34.7 µM) | 
5 | CNc1cc(Cl)cc2c1[nH]c1ncc(-c3ccc4ncc(C(=O)O)c(=O)n4c3)c(N(C)C)c12 [Example 1.16, 7-(6-Chloro-4-(dimethylamino)-8-(methylamino)-9H-pyrido[2,3-b]indol-3-yl)-4-oxo-4H-pyrido[1,2-a]pyrimidine-3-carboxylic acid] | 0.183 | 1.97 | 0.169 (≈ 0.365 µM) |  | 
6 | CNc1c(F)cc(F)c2c1[nH]c1ncc(-c3ccc4ncc(C(=O)O)c(=O)n4c3)c(N(C)C)c12 [Example 1.17, 7-(4-(Dimethylamino)-5,7-difluoro-8-(methylamino)-9H-pyrido[2,3-b]indol-3-yl)-4-oxo-4H-pyrido[1,2-a]pyrimidine-3-carboxylic acid] | ≤ 0.098 | 0.497 | 0.0847 (≈ 0.182 µM) | 60 (≈ 129 µM) | 
7 | CNc1cc(F)cc2c1[nH]c1ncc(-c3ccc4ncc(C(=O)O)c(=O)n4c3)c(N3CCC(CN(C)C4CC4)C3)c12 (stereo not shown) [Example 1.21, 7-(4-(3-((cyclopropyl(methyl)amino)methyl)pyrrolidin-1-yl)-6-fluoro-8-(methylamino)-9H-pyrido[2,3-b]indol-3-yl)-4-oxo-4H-pyrido[1,2-a]pyrimidine-3-carboxylic acid] | 0.155 | 4.78 | 0.392 (≈ 0.706 µM) | 230 (≈ 414 µM) | 
8 | CNc1cc(F)c(Cl)c2c1[nH]c1ncc(-c3ccc4ncc(C(=O)O)c(=O)n4c3)c(N(C)C)c12 [Example 1.23, 7-(5-Chloro-4-(dimethylamino)-6-fluoro-8-(methylamino)-9H-pyrido[2,3-b]indol-3-yl)-4-oxo-4H-pyrido[1,2-a]pyrimidine-3-carboxylic acid] | ≤ 0.098 | 0.458 | 0.0871 (≈ 0.181 µM) |  | 
9 | CNc1c(F)c(F)cc2c1[nH]c1ncc(-c3ccc4ncc(C(=O)O)c(=O)n4c3)c(N3CCC[C@H]3CN(C)C)c12 [Example 1.26, (S)-7-(4-(2-((Dimethylamino)methyl)pyrrolidin-1-yl)-6,7-difluoro-8-(methylamino)-9H-pyrido[2,3-b]indol-3-yl)-4-oxo-4H-pyrido[1,2-a]pyrimidine-3-carboxylic acid] |  |  |  | > 770 | > 100000
10 | CCNc1cc(F)cc2c1[nH]c1ncc(-c3ccn4c(=O)c(C(=O)O)cnc4c3)c(-n3ccc(C(F)(F)F)n3)c12 [Example 1.31, 8-[8-(Ethylamino)-6-fluoro-4-[3-(trifluoromethyl)pyrazol-1-yl]-9H-pyrido[2,3-b]indol-3-yl]-4-oxo-pyrido[1,2-a]pyrimidine-3-carboxylic acid] |  |  |  |  | 30800
11 | CNc1cc(F)cc2c1[nH]c1ncc(-c3ccc4ncc(C(=O)O)c(=O)n4c3)c(C#N)c12 [Example 1.34, 7-[4-Cyano-6-fluoro-8-(methylamino)-9H-pyrido[2,3-b]indol-3-yl]-4-oxo-pyrido[1,2-a]pyrimidine-3-carboxylic acid] |  |  | 0.364 (≈ 0.85 µM) |  | > 100000
12 | CNc1cc(F)cc2c1[nH]c1ncc(-c3ccc4ncc(C(=O)O)c(=O)n4c3)c(N3CCC(F)(F)C3)c12 [Example 2.05, 7-(4-(3,3-Difluoropyrrolidin-1-yl)-6-fluoro-8-(methylamino)-9H-pyrido[2,3-b]indol-3-yl)-4-oxo-4H-pyrido[1,2-a]pyrimidine-3-carboxylic acid] |  |  |  |  | 31800

Second part, led by results:

Row | IC50 [1] [µM] | IC50 [2] [µM] | MIC [3] [µg/mL] | solubility thermodynamic [4] [µg/mL] | Structure (SMILES) | CC50 at 3 days [5] [nM]
13 | ≤ 0.098 | 0.523 | 0.0223 (≈ 0.0396 µM) | 36 (≈ 63.9 µM) | CNc1cc(F)c(F)c2c1[nH]c1ncc(-c3cc(CN4CCOCC4)c4ncc(C(=O)O)c(=O)n4c3)c(N(C)C)c12 [Example 2.01, 7-[4-(Dimethylamino)-5,6-difluoro-8-(methylamino)-9H-pyrido[2,3-b]indol-3-yl]-9-(morpholinomethyl)-4-oxo-pyrido[1,2-a]pyrimidine-3-carboxylic Acid] | 
14 | ≤ 0.098 | 0.738 | 0.0996 (≈ 0.176 µM) | 255 (≈ 451 µM) | CNc1cc(F)c(F)c2c1[nH]c1ncc(-c3cc(CN(C)CCOC)c4ncc(C(=O)O)c(=O)n4c3)c(N(C)C)c12 [Example 2.02, 7-[4-(Dimethylamino)-5,6-difluoro-8-(methylamino)-9H-pyrido[2,3-b]indol-3-yl]-9-[[2-methoxyethyl(methyl)amino]methyl]-4-oxo-pyrido[1,2-a]pyrimidine-3-carboxylic acid] | 
15 | ≤ 0.098 | 0.748 | 0.194 (≈ 0.354 µM) | 51 (≈ 93.1 µM) | CNc1cc(F)c(F)c2c1[nH]c1ncc(-c3cc(CN4CCCC4)c4ncc(C(=O)O)c(=O)n4c3)c(N(C)C)c12 [Example 2.03, 7-[4-(Dimethylamino)-5,6-difluoro-8-(methylamino)-9H-pyrido[2,3-b]indol-3-yl]-4-oxo-9-(pyrrolidin-1-ylmethyl)pyrido[1,2-a]pyrimidine-3-carboxylic acid] | 
16 | 0.22 | 1.21 | 0.0432 (≈ 0.0733 µM) | 91 (≈ 154 µM) | CNc1cc(F)c(F)c2c1[nH]c1ncc(-c3cc(CN4CCOCC4)c4ncc(C(=O)O)c(=O)n4c3)c(N3CCCC3)c12 [Example 2.04, 7-[5,6-Difluoro-8-(methylamino)-4-pyrrolidin-1-yl-9H-pyrido[2,3-b]indol-3-yl]-9-(morpholinomethyl)-4-oxo-pyrido[1,2-a]pyrimidine-3-carboxylic acid] | 
17 | 0.11 | 0.808 | 0.594 (≈ 1.25 µM) |  | CNc1cc(F)c(F)c2c1[nH]c1ncc(-c3cc(C)c4ncc(C(=O)O)c(=O)n4c3)c(C3CC3)c12 [Example 3.01, 7-[4-Cyclopropyl-5,6-difluoro-8-(methylamino)-9H-pyrido[2,3-b]indol-3-yl]-9-methyl-4-oxo-pyrido[1,2-a]pyrimidine-3-carboxylic Acid] | 
